Data on two compounds can be found in publication PMC5018819 (Scientific Reports, 2016).

The structures appear in SMILES notation.

For one assay, the target named is T1, PfEK (Plasmodium falciparum, UniProt Q8IIB7).
T1 sequence (Q8IIB7 2-420): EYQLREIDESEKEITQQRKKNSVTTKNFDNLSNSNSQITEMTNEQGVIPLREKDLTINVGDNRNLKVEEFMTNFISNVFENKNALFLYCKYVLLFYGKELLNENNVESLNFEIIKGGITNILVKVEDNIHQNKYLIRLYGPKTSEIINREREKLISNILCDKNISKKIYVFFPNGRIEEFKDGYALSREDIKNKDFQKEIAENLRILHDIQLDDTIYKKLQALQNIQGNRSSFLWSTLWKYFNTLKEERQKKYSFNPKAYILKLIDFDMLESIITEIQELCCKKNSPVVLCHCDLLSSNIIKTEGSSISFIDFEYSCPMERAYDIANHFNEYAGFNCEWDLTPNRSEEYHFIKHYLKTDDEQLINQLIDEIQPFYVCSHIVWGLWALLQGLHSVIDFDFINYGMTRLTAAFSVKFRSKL
Nature of the assay: IC50 determination, spectrophotometric EK enzyme assay. Type of assay: biochemical, P. falciparum. To be noted: for IC50: Etn as substrate, 0.5 mM each substrate. As for the experimental part: A continuous spectrophotometric 96-well plate assay was established for CK and EK activity based on an assay described. […] The reaction was initiated by addition of enzyme or substrate, as appropriate, and the rate of reaction was monitored by following the decrease in absorbance at 341 nm for 10 min at room temperature using a Thermo Multiska spectrophotometer. Experiments were carried out to ensure that coupling enzymes were not rate-limiting under any of the conditions used and control experiments lacking substrates and/or enzyme were carried out to correct for any background rate.
The enzyme was pre-incubated for 5 min with varying concentrations of inhibitor prior to reaction being started by addition of 0.5 mM each substrate. The IC50 values were estimated using Grafit 5 (Erithacus Software Ltd).

In another assay the target is T2, HsCKα1 (Homo sapiens, UniProt P35790).
T2 construct: made in house
T2 sequence (P35790 whole entry): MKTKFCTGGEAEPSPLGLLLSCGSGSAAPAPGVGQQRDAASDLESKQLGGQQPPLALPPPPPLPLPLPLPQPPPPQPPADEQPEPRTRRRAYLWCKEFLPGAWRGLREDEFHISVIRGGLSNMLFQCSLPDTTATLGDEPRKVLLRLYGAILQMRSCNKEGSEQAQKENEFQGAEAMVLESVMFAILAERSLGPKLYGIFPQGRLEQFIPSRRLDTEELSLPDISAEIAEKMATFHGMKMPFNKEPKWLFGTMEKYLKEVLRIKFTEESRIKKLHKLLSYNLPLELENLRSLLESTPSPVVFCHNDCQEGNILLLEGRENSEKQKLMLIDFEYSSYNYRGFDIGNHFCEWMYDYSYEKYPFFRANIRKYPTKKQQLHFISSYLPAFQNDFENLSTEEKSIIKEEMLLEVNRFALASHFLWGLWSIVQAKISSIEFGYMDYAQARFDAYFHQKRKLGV
Nature of the assay: Kd by tryptophan fluorescence quenching. Type of assay: binding. Particulars: 25 °C, enzyme 1 μM. How it is done: (§1) Compounds BR23 and BR25 were prepared in 100% DMSO. The Kds for compounds BR23 and BR25 against HsCKα1 and PfCK were measured by monitoring the quenching of tryptophan fluorescence. All experiments were carried out in a Cary Eclipse spectrofluorometer at 25 °C with the enzymes at 1 μM, and concentrations of compounds varying from 0.05 to 8 μM for HsCKα1, and from 0.05 to 16 μM for PfCK in 25 mM Tris, 150 mM NaCl, pH 7.5. Fluorescence emission spectra were recorded in the 300–400 nm range with an excitation wavelength of 280 nm, with slit width of 5 nm. Controls were determined by incubating the enzymes with equivalent amounts of DMSO. As indicated previously, data analysis was performed in Prism (GraphPad software) considering a model with a single binding site (Eq. 1), where F0 is the intrinsic fluorescence of the enzyme in the absence of quencher (Q), F1 is the observed fluorescence at a given quencher concentration, fa is the fractional degree of fluorescence, and Kd is the dissociation constant.

In a further assay the target is T3, PfCK (Plasmodium falciparum, UniProt Q8IM71).
T3 construct: made in house
T3 sequence (Q8IM71 1-440): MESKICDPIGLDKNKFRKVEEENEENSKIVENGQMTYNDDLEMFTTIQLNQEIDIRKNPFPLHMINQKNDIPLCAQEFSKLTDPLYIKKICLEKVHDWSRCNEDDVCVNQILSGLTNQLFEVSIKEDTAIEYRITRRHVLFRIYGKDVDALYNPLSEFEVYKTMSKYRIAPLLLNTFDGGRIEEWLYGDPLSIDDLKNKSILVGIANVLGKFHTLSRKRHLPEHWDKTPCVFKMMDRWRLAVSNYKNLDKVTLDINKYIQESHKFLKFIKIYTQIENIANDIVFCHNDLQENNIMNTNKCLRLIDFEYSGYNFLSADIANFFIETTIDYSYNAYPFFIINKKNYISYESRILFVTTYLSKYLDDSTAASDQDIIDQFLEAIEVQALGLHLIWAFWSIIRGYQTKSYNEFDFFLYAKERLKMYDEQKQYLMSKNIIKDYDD
Briefly: Kd by tryptophan fluorescence quenching. Type of assay: binding. Particulars: for Kd: tryptophan fluorescence quenching, 25 °C, enzyme 1 μM. As for the experimental part: as §1

As to `CN(C)c1cc[n+](Cc2ccc(-c3ccc(C[n+]4ccc(N5CCCC5)cc4)cc3)cc2)cc1.[Br-].[Br-]` [BR23], at PfEK, the “inhibition towards PfEK (in words)” value was “neither BR23 nor BR25 showed any inhibition” and the IC50 was over 500000 nM. Also, the Kd on HsCKα1 turned out to be 521 ± 200 nM. In addition, the Kd on PfCK amounted to 1400 nM.

Regarding `CN(C)c1cc[n+](Cc2ccc(CCCCc3ccc(C[n+]4ccc(N5CCCC5)cc4)cc3)cc2)cc1.[Br-].[Br-]` [BR25], on PfEK, the “inhibition towards PfEK (in words)” value was “neither BR23 nor BR25 showed any inhibition” and the IC50 is over 500000 nM. On HsCKα1, this compound came in with a Kd of 352 ± 20 nM. For the same compound, at PfCK (ratio of Kds), the “affinity for PfCK relative to BR23” value is 3 fold. In addition, at PfCK, binding was put at a Kd of 415 ± 81 nM.

The term IC50 denotes the midpoint of a concentration-inhibition curve. Usually Kd stands for the concentration at which binding is half-saturated. Low readings indicate a tighter complex, high ones a looser complex.
